Results from US20240158446A1, “CYCLIC COMPOUND HAVING SELECTIVE INHIBITORY ACTION ON KRAS OVER HRAS AND NRAS” (CHUGAI SEIYAKU KABUSHIKI KAISHA, priority 2021, published 2024).

Experiments:
[1] = biological target: GDP-bound NRAS wild-type protein (Homo sapiens, UniProt P01111); assay: Binding to NRAS by surface plasmon resonance (SPR), Single Cycle Kinetics; details: SPR; for NRAS/KRAS (ratio of KD value for NRAS to KD value for KRAS): GDP-bound NRAS wild-type protein vs GDP-bound KRAS wild-type protein
GDP-bound NRAS wild-type protein, sequence (P01111 whole entry): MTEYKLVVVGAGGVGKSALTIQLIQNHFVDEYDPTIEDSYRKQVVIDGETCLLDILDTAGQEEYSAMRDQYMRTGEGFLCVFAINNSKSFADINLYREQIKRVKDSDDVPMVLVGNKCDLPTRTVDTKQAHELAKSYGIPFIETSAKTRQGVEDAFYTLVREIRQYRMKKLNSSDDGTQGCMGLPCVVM

[2] = biological target: GDP-bound HRAS wild-type protein (Homo sapiens, UniProt P01112); assay: Binding to HRAS by surface plasmon resonance (SPR), Single Cycle Kinetics; details: SPR; for HRAS/KRAS (ratio of KD value for HRAS to KD value for KRAS): GDP-bound HRAS wild-type protein vs GDP-bound KRAS wild-type protein
GDP-bound HRAS wild-type protein, sequence (P01112 whole entry): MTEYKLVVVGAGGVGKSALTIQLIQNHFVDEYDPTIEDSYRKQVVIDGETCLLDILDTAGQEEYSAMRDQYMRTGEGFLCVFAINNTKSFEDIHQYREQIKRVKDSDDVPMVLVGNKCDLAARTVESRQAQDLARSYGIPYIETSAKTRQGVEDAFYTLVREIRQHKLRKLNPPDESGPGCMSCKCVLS

Compound | NRAS/KRAS (ratio of KD value for NRAS to KD value for KRAS) ([1]; KD ratio class) | HRAS/KRAS (ratio of KD value for HRAS to KD value for KRAS) ([2]; KD ratio class) | further results
CCO[C@@H]1C[C@H]2C(=O)NC3(CCC3)C(=O)N(C)[C@@H](C(CC)CC)C(=O)N(C)[C@H](C(=O)N3CCOCC3)CC(=O)N(C)[C@@H](CC3CC3)C(=O)N[C@@H]([C@@H](C)CC)C(=O)N(C)CC(=O)N(C)[C@H]3C/C=C\CCN(C3=O)[C@@H](Cc3ccc(F)cc3)C(=O)N(C)CC(=O)N[C@@H](CCc3cc(F)c(C(F)(F)F)c(F)c3)C(=O)N2C1 [PP1527] | A (a compound having 10 or more and less than 20 is denoted as A) | A (a compound having 10 or more and less than 20 is denoted as A) | –
CCO[C@@H]1C[C@H]2C(=O)NC3(CCC3)C(=O)N(C)[C@@H](C3CCCC3)C(=O)N(C)[C@H](C(=O)N(C)C)CC(=O)N(C)[C@@H](CC3CC3)C(=O)N[C@@H]([C@@H](C)CC)C(=O)N(C)CC(=O)N(C)[C@H]3C/C=C\CCN(C3=O)[C@@H](Cc3ccc(F)cc3C)C(=O)N(C)CC(=O)N[C@@H](CCc3cc(F)c(C(F)(F)F)c(F)c3)C(=O)N2C1 [PP1528] | A (a compound having 10 or more and less than 20 is denoted as A) | B (a compound having 3 or more and less than 10 is denoted as B) | –
CCO[C@@H]1C[C@H]2C(=O)NC3(CCC3)C(=O)N(C)[C@@H](C3CCCC3)C(=O)N(C)[C@H](C(=O)N(C)C)CC(=O)N(C)[C@@H](CC3CCCC3)C(=O)N[C@@H]([C@@H](C)CC)C(=O)N(C)CC(=O)N(C)[C@H]3C/C=C\CCN(C3=O)[C@@H](Cc3ccc(F)cc3C)C(=O)N(C)CC(=O)N[C@@H](CCc3cc(F)c(C(F)(F)F)c(F)c3)C(=O)N2C1 [PP1530] | A (a compound having 10 or more and less than 20 is denoted as A) | B (a compound having 3 or more and less than 10 is denoted as B) | –
C=CCCCCN(C)C(=O)[C@@H]1CC(=O)N(C)[C@@H](CC2CC2)C(=O)N[C@@H](CC=C)C(=O)N(C)CC(=O)N(C)[C@H]2C/C=C\CCN(C2=O)[C@@H](Cc2ccc(C(F)(F)F)cc2)C(=O)N(C)CC(=O)N[C@@H](CCc2cc(F)c(C(F)(F)F)c(F)c2)C(=O)N2C[C@H](OCC)C[C@H]2C(=O)NC2(CCC2)C(=O)N(C)[C@@H](C2CCCC2)C(=O)N1C [PP1554] | A (a compound having 10 or more and less than 20 is denoted as A) | A (a compound having 10 or more and less than 20 is denoted as A) | –
C=CC[C@@H]1NC(=O)[C@H](CC2CC2)N(C)C(=O)C[C@@H](C(=O)N(C)CC=C)N(C)C(=O)[C@H](C2CCCC2)N(C)C(=O)C2(CCC2)NC(=O)[C@@H]2C[C@@H](OCC)CN2C(=O)[C@H](CCc2cc(F)c(C(F)(F)F)c(F)c2)NC(=O)CN(C)C(=O)[C@H](Cc2ccc(C(F)(F)F)cc2)N2CC/C=C\C[C@@H](C2=O)N(C)C(=O)CN(C)C1=O [PP1557] | A (a compound having 10 or more and less than 20 is denoted as A) | A (a compound having 10 or more and less than 20 is denoted as A) | –
CCO[C@@H]1C[C@H]2C(=O)NC3(CC(C)(C)C3)C(=O)N(C)[C@@H](C3CCCC3)C(=O)N(C)[C@H](C(=O)N(C)C)CC(=O)N(C)[C@@H](CC3CCCC3)C(=O)N[C@@H]([C@@H](C)CC)C(=O)N(C)CC(=O)N(C)[C@H]3C/C=C\CCN(C3=O)[C@@H](Cc3ccc(C(F)(F)F)cc3)C(=O)N(C)CC(=O)N[C@@H](CCc3ccc(C(F)(F)F)c(OC)c3)C(=O)N2C1 [PP1565] | A (a compound having 10 or more and less than 20 is denoted as A) | B (a compound having 3 or more and less than 10 is denoted as B) | –
CCO[C@@H]1C[C@H]2C(=O)NC3(CCC3)C(=O)N(C)[C@@H](C3CCCC3)C(=O)N(C)[C@H](C(=O)N(C)CC)CC(=O)N(C)[C@@H](CC3CCCC3)C(=O)N[C@@H]([C@@H](C)CC)C(=O)N(C)CC(=O)N(C)[C@H]3C/C=C\CCN(C3=O)[C@@H](Cc3ccc(C(F)(F)F)cc3)C(=O)N(C)CC(=O)N[C@@H](CCc3ccc(C(F)(F)F)c(OC)c3)C(=O)N2C1 [PP1573] | A (a compound having 10 or more and less than 20 is denoted as A) | A (a compound having 10 or more and less than 20 is denoted as A) | –
CCCC[C@H]1C(=O)N[C@@H]([C@@H](C)CC)C(=O)N(C)CC(=O)N(C)[C@H]2C/C=C\CCN(C2=O)[C@@H](Cc2ccc(C(F)(F)F)cc2)C(=O)N(C)CC(=O)N[C@@H](CCc2cc(F)c(C(F)(F)F)c(F)c2)C(=O)N2C[C@H](OCC)C[C@H]2C(=O)NC2(CCC2)C(=O)N(C)[C@@H](C2CCCC2)C(=O)N(C)[C@H](C(=O)N(CC)CC)CC(=O)N1C [PP1576] | AA (a compound having 20 or more is denoted as AA) | A (a compound having 10 or more and less than 20 is denoted as A) | –
CCCOC[C@H]1C(=O)N[C@@H]([C@@H](C)CC)C(=O)N(C)CC(=O)N(C)[C@H]2C/C=C\CCN(C2=O)[C@@H](Cc2ccc(C)cc2)C(=O)N(C)CC(=O)N[C@@H](CCc2cc(F)c(C(F)(F)F)c(F)c2)C(=O)N2C[C@H](OCC)C[C@H]2C(=O)NC2(CC(C)(C)C2)C(=O)N(C)[C@@H](C2CCCC2)C(=O)N(C)[C@H](C(=O)N(C)CC)CC(=O)N1C [PP1577] | B (a compound having 3 or more and less than 10 is denoted as B) | B (a compound having 3 or more and less than 10 is denoted as B) | –
CCCOC[C@H]1C(=O)N[C@@H]([C@@H](C)CC)C(=O)N(C)CC(=O)N(C)[C@H]2C/C=C\CCN(C2=O)[C@@H](Cc2ccc(C)cc2)C(=O)N(C)CC(=O)N[C@@H](CCc2cc(F)c(C(F)(F)F)c(F)c2)C(=O)N2C[C@H](OCC)C[C@H]2C(=O)NC2(CC(C)(C)C2)C(=O)N(C)[C@@H](C2CCCC2)C(=O)N(C)[C@H](C(=O)N(CC)CC)CC(=O)N1C [PP1578] | A (a compound having 10 or more and less than 20 is denoted as A) | A (a compound having 10 or more and less than 20 is denoted as A) | –
CCO[C@@H]1C[C@H]2C(=O)NC3(CC(C)(C)C3)C(=O)N(C)[C@@H](C3CCCC3)C(=O)N(C)[C@@H](C(C)C)CC(=O)N(C)[C@@H](CC3CC3)C(=O)N[C@@H]([C@@H](C)CC)C(=O)N(C)CC(=O)N(C)[C@H]3C/C=C\CCN(C3=O)[C@@H](Cc3ccc(C(F)(F)F)cc3)C(=O)N(C)CC(=O)N[C@@H](CCc3cc(F)c(C(F)(F)F)c(F)c3)C(=O)N2C1 [PP1594] | A (a compound having 10 or more and less than 20 is denoted as A) | A (a compound having 10 or more and less than 20 is denoted as A) | –
CC[C@H](C)[C@@H]1NC(=O)[C@H](CC(C)C)N(C)C(=O)C[C@@H](C(=O)N(C)C)N(C)C(=O)[C@H](C2CCCC2)N(C)C(=O)C2(CC(C)(C)C2)NC(=O)[C@@H]2C[C@H](C)CN2C(=O)[C@H](CCc2ccc(C(F)(F)F)c(OC)c2)NC(=O)CN(C)C(=O)[C@H](Cc2ccc(C)cc2)N2CC/C=C\C[C@@H](C2=O)N(C)C(=O)CN(C)C1=O [PP1905] | – | – | NRAS/KRAS (KD ratio) ([1]; ratio of KD for GDP-bound NRAS wild-type protein to KD for KRAS): A (a compound having 10 or more and less than 20 is denoted as A); HRAS/KRAS (KD ratio) ([2]; ratio of KD for GDP-bound HRAS wild-type protein to KD for KRAS): A (a compound having 10 or more and less than 20 is denoted as A)
CCCN(C)C(=O)[C@@H]1CC(=O)N(C)[C@@H](C2CC2)C(=O)N[C@@H]([C@@H](C)CC)C(=O)N(C)CC(=O)N(C)[C@H]2C/C=C\CCN(C2=O)[C@@H](Cc2ccc(C(F)(F)F)cc2)C(=O)N(C)CC(=O)N[C@@H](CCc2cc(F)c(C(F)(F)F)c(F)c2)C(=O)N2C[C@H](OCC)C[C@H]2C(=O)NC2(CC(C)(C)C2)C(=O)N(C)[C@@H](C2CCCC2)C(=O)N1C [PP2037] | – | – | NRAS/KRAS (ratio of KD value for NRAS to KD value for KRAS) [1]: A (a compound having 10 or more and less than 20 is denoted as A); HRAS/KRAS (ratio of KD value for HRAS to KD value for KRAS) [2]: A (a compound having 10 or more and less than 20 is denoted as A)
CCC[C@H]1C(=O)N[C@@H]([C@@H](C)CC)C(=O)N(CCC)CC(=O)N(C)[C@H]2C/C=C\CCN(C2=O)[C@@H](Cc2ccc(C)cc2)C(=O)N(C)CC(=O)N[C@@H](CCc2ccc(C(F)(F)F)c(OC)c2)C(=O)N2C[C@H](OCC)C[C@H]2C(=O)NC2(CC(C)(C)C2)C(=O)N(C)[C@@H](C2CCCC2)C(=O)N(C)[C@H](C(=O)N(C)C)CC(=O)N1C [PP2054] | – | – | NRAS/KRAS (ratio of KD value for NRAS to KD value for KRAS) [1]: A (a compound having 10 or more and less than 20 is denoted as A); HRAS/KRAS (ratio of KD value for HRAS to KD value for KRAS) [2]: A (a compound having 10 or more and less than 20 is denoted as A)
C#CC[C@H]1C(=O)N[C@@H]([C@@H](C)CC)C(=O)N(C)CC(=O)N(C)[C@H]2C/C=C\CCN(C2=O)[C@@H](Cc2ccc(C(F)(F)F)cc2)C(=O)N(C)CC(=O)N[C@@H](CCc2ccc(C(F)(F)F)c(OC)c2)C(=O)N2C[C@@H](C)C[C@H]2C(=O)NC2(CC(C)(C)C2)C(=O)N(C)[C@@H](C2CCCC2)C(=O)N(C)[C@H](C(=O)N(C)CCC)CC(=O)N1C [PP2057] | – | – | NRAS/KRAS (ratio of KD value for NRAS to KD value for KRAS) [1]: A (a compound having 10 or more and less than 20 is denoted as A); HRAS/KRAS (ratio of KD value for HRAS to KD value for KRAS) [2]: A (a compound having 10 or more and less than 20 is denoted as A)
